Source: US9669036B2, “Modulation of reactivation of a latent virus” (priority 2013, dated 2017)

Test system: latent HSV-1(F)
Type: cell-based
Conditions: for lowest effective concentration: activation of latent HSV; for lowest effective concentration / Significant Activation of Latent HSV: ganglionic organ cultures in medium containing NGF and EGF; for Significant Activation of Latent HSV: three concentrations tested; for reactivation of HSV in trigeminal ganglia: ganglia harvested 30 days after infection, TSA 400 nM, MS275 or MC1568 10 μM, 20 μM; for accumulation of viral mRNAs with cycloheximide compared with the drug alone / amounts of the LAT and miRNAs in cycloheximide-treated ganglia compared with the drug alone: cycloheximide 150 μg/ml, TSA 400 nM or NSC74859 10 μM
[1] = NGF+EGF medium, 24 h, CTB 200 μM, 500 μM
[2] = medium containing NGF and EGF, 24 h

Which results are given for `NC1(c2ccc(-c3nc4ccn5c(=O)[nH]nc5c4cc3-c3ccccc3)cc2)CCC1` [MK-2206]?
lowest effective concentration (24 h): 2.5 nM lowest effective; Significant Activation of Latent HSV (24 h after excision): Yes

How did the lowest effective concentration (24 h) turn out when `CO[C@H]1C[C@@H]2CC[C@@H](C)[C@@](O)(O2)C(=O)C(=O)N2CCCC[C@H]2C(=O)O[C@H]([C@H](C)C[C@@H]2CC[C@@H](O)[C@H](OC)C2)CC(=O)[C@H](C)/C=C(\C)[C@@H](O)[C@@H](OC)C(=O)[C@H](C)C[C@H](C)/C=C/C=C/C=C/1C` [Rapamycin] was run?
Its lowest effective concentration is 1 nM lowest effective.

How did the “reactivation of HSV and degradation of the LAT and miRNAs” value (curcumin 100 μM, 300 μM, 24 h, independent of medium (NGF+EGF or antibody to NGF)) turn out when `COc1cc(/C=C/C(=O)CC(=O)/C=C/c2ccc(O)c(OC)c2)ccc1O` [curcumin] was run?
The value was “blocked”.

What about the “accumulation of the LAT” value (curcumin at the higher concentration (300 μM)) of the same compound?
The value was “suppressed”.

And the “accumulation of small amounts of mRNAs normally detected at the time of excision of the ganglia” value (medium containing antibody to NGF, compared with freshly excised ganglia)?
Its value is “suppressed”.

`CCOc1ccccc1C(=O)Nc1ccc(Cl)c(C(F)(F)F)c1` [CTB, N-(4-Chloro-3-trifluoromethyl-phenyl)-2-ethoxy-benzamide] was tested. Which “decrease of miRNAs and the LAT following exposure to the drug” value [1] did it give?
The value was “approximately 10 fold”.

And the “increase of all viral mRNAs following exposure to the drug” value [1]?
Its value is “approximately 50 fold”.

Which “reactivation of HSV in trigeminal ganglia” value [2] does the source give for `Nc1ccccc1NC(=O)c1ccc(CNC(=O)OCc2cccnc2)cc1` [MS275, pyridin-3-ylmethyl 4-((2-aminophenyl)carbamoyl)benzylcarbamate] here?
Its value is “induced the reactivation of HSV”.

How did the “Significant Activation of Latent HSV” value (24 h after excision) turn out when `Cc1sc2c(c1C)C(c1ccc(Cl)cc1)=N[C@@H](CC(=O)OC(C)(C)C)c1nnc(C)n1-2` [JQ1] was run?
Its value is “No”.

Which “accumulation of viral mRNAs with cycloheximide compared with the drug alone” value (NGF+EGF medium, 24 h) does the source give for `CC(/C=C/C(=O)NO)=C\[C@@H](C)C(=O)c1ccc(N(C)C)cc1` [TSA, Trichostatin A] here?
The value was “similar”.

And the “amounts of the LAT and miRNAs in cycloheximide-treated ganglia compared with the drug alone” value (NGF+EGF medium, 24 h)?
Its value is “higher”.

What about the “accumulation of mRNAs relative to freshly excised ganglia” value (NGF+EGF+TSA (400 nM), with or without cycloheximide 150 μg/ml, 24 h) of the same compound?
Its value is 10 fold.

What about the “reactivation of HSV in trigeminal ganglia” value [2] of the same compound?
Its value is “induced the reactivation of HSV”.

Which “Significant Activation of Latent HSV” value (24 h after excision) does the source give for `COc1cc2c(NC3CCN(C(C)C)CC3)nc(C3CCCCC3)nc2cc1OCCCN1CCCC1` [UNC0638] here?
Its value is “No”.

For `Cn1c(=O)n(-c2ccc(C(C)(C)C#N)cc2)c2c3cc(-c4cnc5ccccc5c4)ccc3ncc21` [BEZ-235], which lowest effective concentration (24 h) is on record?
Its lowest effective concentration is 40 nM lowest effective.

And the “Significant Activation of Latent HSV” value (24 h after excision)?
The value was “Yes”.

For `C[C@@H]1CCN(C(=O)CC#N)C[C@@H]1N(C)c1ncnc2[nH]ccc12` [Tofacitinib], which “Significant Activation of Latent HSV” value (24 h after excision) is on record?
The value was “No”.

Which results are given for `O=C(Nc1ccc2c(O)cc(S(=O)(=O)O)cc2c1)Nc1ccc2c(O)cc(S(=O)(=O)O)cc2c1` [AMI-1]?
Significant Activation of Latent HSV (24 h after excision): No; Comments: activation of latent HSV (medium containing NGF and EGF, all concentrations tested): No activation

What does the source list for `CS(=O)(=O)N1CCN(Cc2cc3nc(-c4cccc5[nH]ncc45)nc(N4CCOCC4)c3s2)CC1` [GDC-0941]?
lowest effective concentration (24 h): 10 nM lowest effective; Significant Activation of Latent HSV (24 h after excision): Yes

How did the “accumulation of viral mRNAs with cycloheximide compared with the drug alone” value (NGF+EGF medium, 24 h) turn out when `Cc1ccc(S(=O)(=O)OCC(=O)Nc2ccc(C(=O)O)c(O)c2)cc1` [NSC74859] was run?
The value was “consistently lower”.

And the “amounts of the LAT and miRNAs in cycloheximide-treated ganglia compared with the drug alone” value (NGF+EGF medium, 24 h)?
Its value is “higher”.

What about the “representatives of all four temporally regulated groups of viral genes (ICP27, TK, VP16, UL41 mRNAs)” value (NGF+EGF medium, 24 h after excision, NSC74859 10 mM and 50 μM) of the same compound?
Its value is “upregulated”.

`Cn1cc(/C=C/C(=O)c2cccc(F)c2)cc1/C=C/C(=O)NO` [MC1568, (E)-3-(4-((E)-3-(3-fluorophenyl)-3-oxoprop-1-enyl)-1-methyl-1H-pyrrol-2-yl)-N-hydroxyacrylamide] was tested. Which “reactivation of HSV in trigeminal ganglia” value [2] did it give?
Its value is “induced the reactivation of HSV”.

With `Cc1[nH]c2ccccc2c1CCNCc1ccc(/C=C/C(=O)NO)cc1` [Panobinostat] as the compound, how does the lowest effective concentration (24 h) read?
The lowest effective concentration was 0.5 nM lowest effective.
